Source: the COVID Moonshot data (paper PMC11187573), “Identification of SARS-CoV-2 Mpro inhibitors through deep reinforcement learning for de novo drug design and computational chemistry approaches” (RSC Medicinal Chemistry, 2024)

Assays:
[1] = biological target: SARS-CoV-2 Main Protease (SARS-CoV-2) (UniProt P0DTD1)
[2] = biological target: SARS-CoV-2 Main Protease (SARS-CoV-2) (UniProt P0DTD1); remark: listed apart in the source

SMILES	inhibition ([1]; 50.0 µM)	inhibition ([2]; 20.0 µM)	inhibition ([2]; 50.0 µM)	relative solubility at 20 uM	relative solubility at 100 uM	inhibition ([1]; 20.0 µM)	IC50 [2]
CCSCC1CCN(c2ccc(S(N)(=O)=O)cc2)CC1	-25.8%	26%	40.2%	1	1.01	–	–
CN1CCN(C(=O)Cc2c[nH]c3ncccc23)CC1C(=O)NCCc1c[nH]c2ccc(F)cc12 (stereo not drawn)	-21.5%	–	-15%	0.98	0.98	-9.55%	–
N#Cc1ccc(CNC(=O)Cc2c[nH]c3ncccc23)nc1	0.616%	0%	–	1	1	4.15%	–
CCS(=O)(=O)N1CCC(C(=O)Nc2cc(Cl)ccc2O)CC1	-2.7%	–	0%	1	1	-1.05%	–
NS(=O)(=O)c1ccc2c(c1)CN(CC1CCN(C(=O)CCl)CC1)CC2	60.3%	–	91.1%	1	1	30.8%	31.2 µM
C=CC(=O)N(c1ccc(C(C)(C)C)cc1)C(C(=O)Nc1ccccc1OC)c1cccnc1 (stereo not drawn)	44.2%	0%	25.4%	0.97	0.95	26.3%	–
O=C(Nc1nc2ccc(F)cn2n1)C1CCOc2ccc(Cl)cc21 (stereo not drawn)	7.58%	–	0%	1	0.99	-28.5%	–
O=C(Cc1cc(Cl)c2c(c1)OCCO2)Nc1cnccc1-c1ccccc1	-10.4%	–	0%	0.88	0.94	-45.1%	–
CNC(=O)OC1CCN(Cc2ccccc2)CC1	17.6%	0.824%	0%	0.99	1	–	–
C=CC(=O)N(c1ccc(SC)cc1)C(C(=O)Nc1ccc(Cl)cc1)c1cccnc1 (stereo not drawn)	32.3%	9.4%	–	0.81	0.64	16.9%	–
CC(C(=O)Nc1cnccc1C)=C1CC1	-8.02%	–	0%	1	1	2.11%	–
C=CC(=O)N(C1CCC2(CCCC2)C1)C(C(=O)NC(C)(C)C)c1cccnc1 (stereo not drawn)	6.35%	0%	–	0.98	0.99	5.22%	–
O=C(Nc1nncn1C1CC1)[C@@H]1CCOc2ccc(Cl)cc21 (stereo in doubt)	19.5%	–	-10.4%	0.99	0.99	-7.38%	–
Cc1nn(C(C)C)c(C)c1CC(=O)Nc1nncn1C1CC1	-6.89%	–	5.29%	1	1	-5.19%	–
C=CC(=O)N(c1cc(C(C)(C)C)on1)C(C(=O)Nc1c(C)cccc1CC)c1cccnc1 (stereo not drawn)	21.1%	1.49%	–	0.99	0.9	7.33%	–
O=C(Cc1c[nH]c2ncccc12)N1CCC(N2CCCS2(=O)=O)CC1	-1.92%	0%	–	1	1.01	18.5%	–
CN(C)c1ccc(N(Cc2ccsc2)C(=O)Cn2nnc3ccccc32)cc1	90.5%	–	90.3%	0.92	0.48	84.4%	5.37 µM
O=C(NCc1ccccc1OCCO)C(=O)N[C@H]1C[C@H]1C1CCOCC1 (stereo in doubt)	-9.81%	–	0%	1.01	1	1.34%	–
NS(=O)(=O)c1ccc(N2CCC(Nc3ccccc3)CC2)cc1	9.57%	27.2%	22%	1	1	–	–
Cc1ccccc1CN1CCN(C(=O)C(F)C(C)C)CC1 (stereo not drawn)	6.7%	0%	10.3%	1	1	2.74%	–
Cc1ccncc1NC(=O)Cc1cccc(Br)c1	77.7%	–	98.3%	1.01	1	56.2%	15.9 µM
C=CC(=O)N(c1ccc(C(C)(C)C)cc1)C(C(=O)NCCc1cccc(F)c1)c1cncc(Cl)c1 (stereo not drawn)	57.9%	–	60.6%	0.71	0.32	24.2%	2.11 µM
C/C=C/C(=O)Nc1cccc(OC2CC(=O)N2)c1 (stereo not drawn)	4.68%	–	0%	1	1	-3.03%	–
C=CC(=O)N(c1ccc(S(F)(F)(F)(F)F)cc1)C(C(=O)Nc1ccc(OC)cc1C)c1cccnc1 (stereo not drawn)	12.2%	0%	–	0.92	0.75	5.52%	–
CCCSCC(=O)C(C#N)C(=O)Nc1ccc(F)cc1F (stereo not drawn)	21.8%	3.06%	3.54%	1.01	1.01	–	–
C=CC(=O)N(c1ccc(SC)cc1)C(C(=O)Nc1ccc(OC)cc1)c1cccnc1 (stereo not drawn)	27%	0%	–	0.91	0.77	13.5%	–
CCOC(=O)[C@@H](CCc1ccccc1)N[C@H](C)C(=O)Nc1cccc(CN2CCCC2)c1 (stereo in doubt)	1.33%	–	6.6%	0.99	0.97	-3.55%	–
C=CC(=O)N(c1ccc(C(C)(C)C)cc1)C(C(=O)NC(C)CC)c1cccnc1 (stereo not drawn)	32.5%	3.71%	23.9%	1	1	16.8%	–

SMILES	inhibition ([1]; 50.0 µM)	inhibition ([2]; 20.0 µM)	inhibition ([2]; 50.0 µM)	relative solubility at 20 uM	relative solubility at 100 uM	inhibition ([1]; 20.0 µM)	IC50 [2]
Cc1ccccc1CNc1ccccc1NC(=O)C(O)c1cccnc1 (stereo not drawn)	7.28%	4.59%	35.7%	0.95	0.94	-0.056%	–
O=C(N/N=C/c1c[nH]cn1)C1CCCCC1	2.16%	–	-16.3%	1.01	1	-3.95%	–
CS(=O)(=O)Nc1cccc(C(=O)OCC(=O)Nc2cccc(N3CCCC3=O)c2)c1	3.7%	–	0%	0.98	0.99	5.16%	–
C=CC(=O)N(c1ccc(N(C)C)c(C)c1)C(C(=O)Nc1c(C)cccc1CC)c1cccnc1 (stereo not drawn)	13.2%	0%	–	0.9	0.77	6.4%	–
NC(=O)CCN(C(=O)CCl)C1CCS(=O)(=O)C1 (stereo not drawn)	18.6%	16.3%	34.1%	1	1	–	–
Cc1ccn(CC(=O)NCc2nccn2CCc2ccccc2)c(=O)c1	-2.52%	–	0%	1	1	-14.1%	–
C=CC(=O)N(c1ccc(C(C)(C)C)cc1)C(C(=O)NC1CCC1)c1cccnc1 (stereo not drawn)	12%	0%	51.9%	1	1	6.16%	–
O=C(Cc1cccnc1Br)Nc1cccc(OCCn2cncn2)c1	-21.7%	0%	0%	1	1	–	–
CS(=O)(=O)NCCc1ccccc1O	14.4%	0%	0%	1	1	–	–
Cc1nnc(NC(=O)Cc2cccc(Cl)c2)n1C	0.874%	–	-14%	1	1	-6.05%	–
O=C(CCl)N1CCC(C(=O)N2CCCCC2)CC1	31.4%	0.506%	–	1	1	18.5%	–
Cc1ccncc1NC(=O)C(C)CC1CC1 (stereo not drawn)	2.12%	–	0%	1	1	-2.37%	–
O=C(Nc1cccnc1)Nc1cncc(Cl)c1	16.8%	0%	-0.075%	1	1	–	–
C=CC(=O)N(c1ccc(C(C)C)nc1)C(C(=O)Nc1c(C)cccc1CC)c1cccnc1 (stereo not drawn)	12.5%	0%	–	1	0.95	5.61%	–
CC(C)N(C)C(=O)C1CCN(C(=O)CCl)CC1	38.8%	-0.0976%	–	1	1	17.3%	–
CC(Cl)C(=O)N1CCC(C(=O)N2CCCCC2)CC1 (stereo not drawn)	-27%	0%	0%	0.99	1	-11.9%	–
Cc1nnn(NC(=O)Cc2cccc(Cl)c2)c1C	70.4%	–	28.7%	1	1.01	39.6%	73.4 µM
O=C(c1cc(=O)[nH]c2ccccc12)N1CCN(Cc2ccccc2)CC1	87.8%	–	82.4%	0.99	1	74.5%	18.8 µM
COc1ccncc1NC(=O)C(C)(C)c1cc(F)cc(C#N)c1	30.8%	–	40.6%	0.99	1	20%	–
C=CC(=O)N(c1ccc(C(C)(C)C)cc1)C(C(=O)NC(C)(C)C)c1cccnc1 (stereo not drawn)	27.2%	0%	16.1%	0.96	0.89	12.7%	–
Cc1cccc(NC(=O)C(C#N)C(=O)C2CC2)c1 (stereo not drawn)	5.88%	0.422%	0.517%	0.99	0.99	–	–
CNC(=O)OC1CCN(C(=O)c2ccncc2)CC1	-25.3%	0.65%	2.15%	1	1	–	–
Cc1cc2c(cc1C)[C@H](C(=O)Nc1cncnc1-n1cccn1)CO2 (stereo in doubt)	-9.4%	–	0%	0.82	0.76	-1.2%	–
Nc1ncc(S(=O)(=O)NCc2cccc(Cl)c2)cn1	-6.16%	–	6.76%	1	0.97	5.4%	–
CC1(C)Cc2cccc(OCCNC(=O)c3cc(=O)[nH]c4cc(F)ccc34)c2O1	69.9%	–	13.8%	0.97	0.97	36.7%	–
CCOc1ccccc1OC1CCN(C(=O)c2cc(=O)[nH]c3cc(F)ccc23)C1 (stereo not drawn)	21.4%	–	0%	1	0.99	13.4%	–
COc1ccccc1OCCNC(=O)c1cc(=O)[nH]c2cc(F)ccc12	51.7%	–	9.64%	0.88	0.66	-6.6%	–
